As usually defined, the melting point is the temperature of the solid-liquid transition. `COc1cccc([C@H]2O[C@H](CC(=O)Nc3cc(C(=O)O)ccc3C)C(=O)N(CC(C)(C)CO)c3ccc(Cl)cc32)c1OC` registered a melting point of 172 to 173 °C.

Consider `CCCCCCCCOc1cc(-n2c(=O)cc(C(F)(F)F)n(C)c2=O)c(F)cc1Cl`, for which the melting point lay within 60 to 63 °C.

Consider `CCOC(=O)c1c2ccc(Cl)cc2c(-c2ccccc2)n1C1=CCC(=O)C=C1`, for which the melting point was in the range of 94 to 95 °C.

Consider `CCOC(=O)c1cn(Cc2ccccc2)c2cc(C3CC3)nn2c1=O`, for which the melting point lay in the range of 160 to 165 °C.

`O=C(OCC1=CC(O)C2C=COC(OC3OC(CO)C(O)C(O)C3O)C12)c1ccc(O)cc1` (stereo not drawn) displayed a melting point of 148 to 150 °C.

Consider `Cc1ccc(C(=O)CCc2ccc(N3CCN(c4ccncc4)CC3)cc2)cc1`, for which the melting point lay in the range of 114 to 115 °C.

`CC1(C)Oc2ccc([N+](=O)[O-])cc2C(n2ccccc2=O)=C1CN` yielded a melting point of 231 °C.

`COc1cc2cc(N(C)C)sc2cc1OCc1ccccc1` had a melting point of 140 to 142 °C.

In the case of `COCCN(C)CC(=O)N(C)Cc1ccc(C(=O)Nc2nc3c(OC)ccc(N4CCOCC4)c3s2)cc1`, the melting point lay in the range of 171 to 173 °C.

For the compound `Fc1ccc(-c2[nH]nc(Nc3ccccc3)c2-c2ccncc2)cc1`, the melting point was in the range of 218 to 219 °C.

Compound `c1ccc2c(c1)ncc1nc(-c3nnn[nH]3)cn12` returned a melting point of 320 to 322 °C.

For `CCOC(=O)C(=O)Nc1ccccc1Cn1cc(C(=O)OC)c2ccccc21`, the melting point lay in the range of 174 to 177 °C.

`CCc1sc2ncnc(N)c2c1-c1ccc(NC(=O)c2ccccc2)cc1`: the melting point was in the range of 213 to 214 °C.

As to `CCOC(=O)CCc1cn(Cc2ccc(OCc3nc(-c4ccco4)oc3C)cc2)nc1O`, the melting point was in the range of 145 to 146 °C.

Turning to `O=C(CN1CCCC1=O)NCc1cccc(CNC(=O)CN2CCCC2=O)n1`, the melting point was found to be 149 °C.

As to `CCC(=O)NCCC1=CCc2cc(F)c(OC)cc21`, the melting point lay within 140 to 143 °C.

Turning to `O=C(c1ccncc1)c1cc(-c2ccccc2)c(N2CCOCC2)s1`, the melting point turned out to be 149 °C.

`COc1ccc2nc(COc3ccc(CC4SC(=O)NC4=O)cc3)n(C)c2c1` (stereo not drawn) gave a melting point of 267 to 271 °C.

Take `O=C(CNC(=O)OCc1ccccc1)NCC1CCCCC1`: the melting point was 95 to 98 °C.

`O=Cc1ccc(OC2CCCC2)c(O)c1Br` had a melting point of 107 to 109 °C.

The compound `O=C(O)c1cnn2ccc(-c3ccc(Cl)cc3)nc12` came in with a melting point of 309 to 311 °C.

Regarding `COc1ccc(Oc2ccc3c(c2)OCC(=O)N3)cc1`, the melting point was 163 to 164 °C.

Compound `CC(C)OC(=O)C1CCCN1S(=O)(=O)c1ccc(N2CCC(NCC(O)COc3cccc4[nH]c(=O)[nH]c34)CC2)cc1` (stereo not drawn) showed a melting point of 74 to 83 °C.

As to `c1ccc(OCC2CCN(CCCOc3cccc4[nH]c5ccccc5c34)CC2)cc1`, the melting point is 126 to 128 °C.

`CCOC(=NS(=O)(=O)c1ccccc1)N1Cc2ccccc2-c2ccccc2C1` yielded a melting point of 146 to 150 °C.

In turn, `CN1CC(C(=O)c2c[nH]cc2Cc2ccc(F)cc2)=C(O)C1=O` came in with a melting point of 265 to 267 °C.

Compound `NS(=O)(=O)c1ccc(N2CN(C3CCCCC3)CC2=O)c(Cl)c1` returned a melting point of 188 to 190 °C.

`CC1(C)CC(O)=CC2(C1)NCC(c1cccc(O)c1)O2` (stereo not drawn) returned a melting point of 217 °C.

Turning to `NC(=O)C1(CCCNC=O)c2ccccc2-c2ccccc21`, the melting point fell in the range of 160 to 161 °C.

With `CC(C)(C)C(O)Cn1ncn(-c2ccc(N3CCN(c4ccc(O[Si](C)(C)C(C)(C)C)cc4)CC3)cc2)c1=O` (stereo not drawn), the melting point turned out to be 196 °C.

The compound `COC(=O)C1=Cc2cc(-c3ccc(OC)cc3)ccc2SCC1` came in with a melting point of 117 to 120 °C.

Compound `CCC(=O)NCc1ccc(CN2CCN(c3ncccn3)CC2)cc1` returned a melting point of 103 to 105 °C.

As to `O=C(CSc1ccccn1)C12CC3CC(CC(C3)C1)C2`, the melting point was in the range of 60 to 61 °C.

Take `COCOc1ccc(OCc2ccccc2)c(CBr)c1`: the melting point was 55 to 57 °C.

`COc1cc(NC(=O)C2C(=O)N(C)C(=S)N(C)C2=O)ccc1Oc1ccc(C(F)(F)F)cc1Cl` had a melting point of 178 to 182 °C.

In turn, `CC(=O)Nc1nc2c(s1)-c1nc(N3CCOCC3)ncc1C2` yielded a melting point greater than 300 °C.

In turn, `O=C1Nc2ccc(Cl)cc2C1(Cl)c1cccc(F)c1F` (stereo not drawn) displayed a melting point of 248 °C.

Take `COc1ccc(CNc2nccc(-c3c[nH]nc3-c3ccc(F)cc3)n2)cc1`: the melting point is 183 to 185 °C.

`COc1ccc(C2=NN(C3CCCC3)C(=O)[C@H]3CC=CC[C@@H]23)cc1Cl` (relative stereo): the melting point fell in the range of 201 to 202 °C.

Turning to `O=C(Nc1ccc(-n2nc(C(F)(F)F)cc2C2CC2)cc1)c1c(F)cccc1F`, the melting point fell in the range of 188 to 191 °C.

As to `COc1cc(C(=O)N2Cc3ccccc3Cc3ccccc32)ccc1NC(=O)C1(C)C=CC=CC1` (stereo not drawn), the melting point was 209 to 210 °C.

The compound `CCOC(=O)Cc1ccc(NC(=O)C(CO)NS(=O)(=O)c2ccc(Cl)cc2)cc1` (racemic) displayed a melting point of 139 to 140 °C.

`O=C(O)Cc1ccn2c(=O)c(C(=O)O)ccc2c1` came in with a melting point greater than 250 °C.

`O=C=NCc1cccnc1`: the melting point was in the range of 141 to 146 °C.

Regarding `COC(=O)c1cc(C(=O)N[C@@H](Cc2ccccc2)[C@H]2CN(C3(c4cccc(C(F)(F)F)c4)CC3)C(=O)O2)n2c1CN(S(C)(=O)=O)CC2`, the melting point came out at 104 °C.

In turn, `C=CC(COC(c1ccccc1)(c1ccccc1)c1ccccc1)OCCCCCCCCCCCCCCCC` (stereo not drawn) registered a melting point of 34 °C.

Consider `CCCCCCCCCNC(=O)CCCC`, for which the melting point is 29 to 31 °C.

As to `COC(=O)CCc1ccc(OCCSCCO)cc1`, the melting point was in the range of 47 to 48 °C.

`O=C1CCCc2nc(C#Cc3cccnc3)ccc21` came in with a melting point of 120 to 122 °C.

`CC(C)(CF)C(O)C(Oc1ccc(Cl)cc1)n1cncn1` (stereo not drawn) showed a melting point of 103 to 112 °C.

For `CN1C(=O)Cn2cc(C(=O)NCc3ccc(Cl)cc3)c(=O)c3cc(CN4CCOCC4)cc1c32`, the melting point was 213 to 214 °C.

The compound `N#Cc1cnn2c1N(C(=O)CCl)CC=C2c1ccc(Cl)cc1` had a melting point of 198 to 199 °C.

In turn, `O=C(O)c1cc(-n2c(-c3ccc(Cl)c(Cl)c3)cc3c2CCCC3)ccc1O` gave a melting point of 210 to 211 °C.

Regarding `CCCCOC(=O)c1cc(NC(=O)C2=C(C)OCCS2)ccc1Cl`, the melting point is 71 to 73 °C.

The compound `CCCCCC(=O)Nc1ccc2nnc(C(=O)OCC)c(O)c2c1` yielded a melting point of 265 to 266 °C.

Compound `CN(C)CCN/C(=C1/Sc2ccccc2C1=O)c1ccccc1` displayed a melting point of 123 to 125 °C.

Compound `C[C@H](C#Cc1sccc1Cc1ccc(F)cc1)N(O)C(N)=O` returned a melting point of 99 to 100 °C.

`O=C(Nc1nc2ccccc2s1)c1ccccc1C(c1ccc(O)cc1)c1ccc(O)cc1`: the melting point is 140 to 141 °C.

In turn, `COc1ccc(-c2ccc(S(=O)(=O)CC(C)N(O)C=O)cc2)cc1` (stereo not drawn) displayed a melting point of 197 to 198 °C.

The compound `CCc1nc(-c2ncn3c2CCCc2ccccc2-3)no1` returned a melting point of 151 °C.

Regarding `O=C(O)c1ccccc1NCCNc1ccccc1F`, the melting point is 127 to 128 °C.

Turning to `O=C1c2ccccc2CS(=O)(=O)N1CCC(c1ccccc1)N1CCOCC1` (stereo not drawn), the melting point was 130 °C.

For the compound `COc1cc(OC)cc(-c2ncn(CCO)c2-c2ccc(OC)c(F)c2)c1`, the melting point lay in the range of 202 to 204 °C.

`CC(C)C(=O)Nc1ccnc(-c2ccncc2)n1` registered a melting point of 215 to 217 °C.

Regarding `O=C(Nc1cccc(S(=O)(=O)NCCc2ccncc2)c1)c1cnn2c(C(F)(F)F)cc(-c3ccc(C(F)(F)F)cc3)nc12`, the melting point came out at 236 °C.

Regarding `CC(C)(C)c1ccc(NC(=O)Nc2ccc(Oc3cc(NCc4ccccc4)ncn3)cc2)cc1`, the melting point lay within 118 to 120 °C.

Consider `Cc1cc2c(cc1F)C(C)(C)CCC2(C)C`, for which the melting point was in the range of 90 to 91.8 °C.

Compound `CC(=O)OC(=O)c1ccc(N2C(=O)NC(N(CC(C)C)C(C)=O)NC2=O)cc1` yielded a melting point of 134 to 137 °C.

Compound `N#CCC(=O)Nc1cc(N)ccc1[N+](=O)[O-]` showed a melting point of 218 to 220 °C.

`NC(=O)c1cnc(C(N)=O)cn1` registered a melting point greater than 270 °C.

Consider `O=c1oc2ccccc2cc1S(=O)(=O)Cc1ccc(Cl)cc1Cl`, for which the melting point was in the range of 228 to 229 °C.

As for `COc1ccc(-c2nc(N)ncc2-c2ccc(=O)[nH]n2)cc1F`, the melting point is 250 °C.

The compound `O=C(O)c1c(Oc2ccc(F)cc2)cccc1Oc1ccc2c(c1)OCO2` gave a melting point of 164 to 166 °C.

`CCOC(=O)c1ccc(NC(=O)c2ccc3c(c2)C(C)(C)CC(=O)N3C)cc1` gave a melting point of 175 to 177 °C.

`Cn1cc(Cl)c2cccc(C(=O)c3ccccc3)c21` yielded a melting point of 73 to 74.5 °C.

Compound `CNc1nc(C)c(-c2nc3ccccc3c(=O)n2-c2ccccc2)s1` had a melting point of 209 to 210 °C.

Compound `[N-]=[N+]=NC(=O)c1cn(C2CCN(Cc3ccccc3)C2)nn1` (stereo not drawn) showed a melting point of 160 °C.

`O=C(NC(CS)Cc1ccccc1)NC(CS)Cc1ccccc1` (stereo not drawn) displayed a melting point of 136 to 138 °C.

`CC(C)(C)C(=O)Nc1cc(Cl)c([N+](=O)[O-])cc1Cl` had a melting point of 142 to 145 °C.

With `CCOC(=O)c1cc2ccc(C)c(NS(=O)(=O)c3cccs3)c2[nH]1`, the melting point was 184 to 185 °C.

Consider `c1ccc(Oc2ccc(Nc3ncnc4cnc(N5CCCCC5)nc34)cc2)cc1`, for which the melting point is 175 °C.

In the case of `Cc1nc2n(C)c(C)cn2c(=O)c1CCN1CCC(n2ccc3ccccc32)CC1`, the melting point turned out to be 166 °C.

Compound `CCCCCCCCS(=O)(=O)c1ccc(CC(COC(C)=O)(COC(C)=O)NC(C)=O)cc1` returned a melting point of 98 to 100 °C.

In the case of `COc1ccc(C2(OC)OC2(C)C)cc1` (stereo not drawn), the melting point lay within 41 to 43 °C.

The compound `ICCC12CC3CC(CC(C3)C1)C2` displayed a melting point of 93 to 94 °C.

Take `C[C@@H]1CN2C(=O)c3ccccc3[C@@](O)(c3ccc(F)cc3)C2=N1`: the melting point was 229 to 232 °C.

`CCCN1C(=O)C(C)(C)N=C(c2ccccc2F)c2cc([N+](=O)[O-])cc(Cl)c21` showed a melting point of 178 to 179 °C.

With `COC(=O)C1CC(O)CN1C(=O)c1cc(OC)c(OC)c(OC)c1` (stereo not drawn), the melting point is 126 °C.

The record behind these values is a melting point compilation (Tetko et al.; mined from patent text by program, amines drawn as free bases though some values may be those of a salt).
